# Laboratory results from ChEMBL document CHEMBL6109124, “Identification of effective anti-osteosarcoma agents via screening of an in-house NQO1-targeted compound library” (Bioorg Med Chem, 2025).
# Activity calls are given as the source filed them. The calls are words filed in the database; no cut-off is given here.
# What was measured:
# HOS-TE85 [1] = assay: Induction of apoptosis in human MNNG cells assessed as early apoptotic cells at 5 uM measured after 48 hrs by Alexa Fluor 488 Annexin V/propidium iodide staining based flow cytometry (reference value: 0.69%); assay type: functional
# HOS-TE85 [2] = assay: Cell cycle arrest in human MNNG cells assessed as accumulation of cells at S phase at 1 uM measured after 24 hrs by propidium iodide staining based flow cytometry (reference value: 39.4%); assay type: functional
# HOS-TE85 [3] = assay: Induction of apoptosis in human MNNG cells assessed as early apoptotic cells at 1 uM measured after 48 hrs by Alexa Fluor 488 Annexin V/propidium iodide staining based flow cytometry (reference value: 0.69%); assay type: functional
# HOS-TE85 [4] = assay: Induction of apoptosis in human MNNG cells assessed as necrotic cells at 5 uM measured after 48 hrs by Alexa Fluor 488 Annexin V/propidium iodide staining based flow cytometry (reference value: 0.04%); assay type: functional
# HOS-TE85 [5] = assay: Induction of reactive oxygen species generation in human MNNG cells measured after 3 hrs by DCFH-DA probe based fluorescence assay; assay type: functional, cell-based; conditions: dose 1-10 µM
# [6] = Toxicity in human MNNG cell xenografted Balb/c mouse assessed as body weight loss at 15 to 45 mg/kg, iv administered every 2 days for 3 weeks and measured every other day during compound dosing; assay type: organism-based; conditions: in vivo, 504 h, dose 15-45 mg/kg, time 21 day
# HOS-TE85 [7] = assay: Induction of apoptosis in human MNNG cells assessed as late apoptotic cells at 5 uM measured after 48 hrs by Alexa Fluor 488 Annexin V/propidium iodide staining based flow cytometry (reference value: 0.51%); assay type: functional
# HOS-TE85 [8] = assay: Cell cycle arrest in human MNNG cells assessed as accumulation of cells at G2/M phase at 2.5 uM measured after 24 hrs by propidium iodide staining based flow cytometry (reference value: 39.4%); assay type: functional
# HOS-TE85 [9] = assay: Induction of apoptosis in human MNNG cells assessed as late apoptotic cells at 2.5 uM measured after 48 hrs by Alexa Fluor 488 Annexin V/propidium iodide staining based flow cytometry (reference value: 0.51%); assay type: functional
# HOS-TE85 [10] = assay: Induction of apoptosis in human MNNG cells assessed as necrotic cells at 10 uM measured after 48 hrs by Alexa Fluor 488 Annexin V/propidium iodide staining based flow cytometry (reference value: 0.04%); assay type: functional
# HOS-TE85 [11] = assay: Cell cycle arrest in human MNNG cells assessed as accumulation of cells at G2/M phase at 10 uM measured after 24 hrs by propidium iodide staining based flow cytometry (reference value: 39.4%); assay type: functional
# HOS-TE85 [12] = assay: Cell cycle arrest in human MNNG cells assessed as accumulation of cells at S phase at 10 uM measured after 24 hrs by propidium iodide staining based flow cytometry (reference value: 39.4%); assay type: functional
# HOS-TE85 [13] = assay: Induction of apoptosis in human MNNG cells assessed as early apoptotic cells at 2.5 uM measured after 48 hrs by Alexa Fluor 488 Annexin V/propidium iodide staining based flow cytometry (reference value: 0.69%); assay type: functional
# HOS-TE85 [14] = assay: Cytotoxicity against human MNNG cells assessed as cell growth inhibition measured after 72 hrs by MTT assay; assay type: functional, cell-based; conditions: HOS-TE85, 72 h
# HOS-TE85 [15] = assay: Cell cycle arrest in human MNNG cells assessed as accumulation of cells at G2/M phase at 5 uM measured after 24 hrs by propidium iodide staining based flow cytometry (reference value: 39.4%); assay type: functional
# HOS-TE85 [16] = assay: Induction of reactive oxygen species generation in human MNNG cells at 5 to 10 uM measured after 3 hrs in presence of dicoumarol by DCFH-DA probe based fluorescence assay; assay type: functional, cell-based; conditions: dose 5-10 µM
# HOS-TE85 [17] = assay: Induction of apoptosis in human MNNG cells assessed as viable cells at 1 uM measured after 48 hrs by Alexa Fluor 488 Annexin V/propidium iodide staining based flow cytometry (reference value: 98.8%); assay type: functional; conditions: read-out: Activity
# [18] = Toxicity in human MNNG cell xenografted Balb/c mouse assessed as mortality at 15 to 45 mg/kg, iv administered every 2 days for 3 weeks and measured every other day during compound dosing; assay type: organism-based; conditions: in vivo, 504 h, dose 15-45 mg/kg, time 21 day
# [19] = Toxicity in human MNNG cell xenografted Balb/c mouse assessed as effect on heart at 15 to 45 mg/kg, iv administered every 2 days for 3 weeks and measured post last dose by H and E staining based microscopy; assay type: organism-based; conditions: in vivo, 504 h, dose 15-45 mg/kg, time 21 day
# HOS-TE85 [20] = assay: Induction of apoptosis in human MNNG cells assessed as necrotic cells at 1 uM measured after 48 hrs by Alexa Fluor 488 Annexin V/propidium iodide staining based flow cytometry (reference value: 0.04%); assay type: functional
# HOS-TE85 [21] = assay: Cell cycle arrest in human MNNG cells assessed as accumulation of cells at S phase at 2.5 uM measured after 24 hrs by propidium iodide staining based flow cytometry (reference value: 39.4%); assay type: functional
# [22] = Toxicity in human MNNG cell xenografted Balb/c mouse assessed as reduction in AST level at 15 to 45 mg/kg, iv administered every 2 days for 3 weeks and measured post last dose; assay type: organism-based; conditions: in vivo, 504 h, dose 15-45 mg/kg, time 21 day
# HOS-TE85 [23] = assay: Antitumor activity against human MNNG cells xenografted in Balb/c mouse assessed as tumor growth inhibition at 15 mg/kg, iv administered every 2 days for 3 weeks and measured daily during compound dosing relative to control; assay type: functional; conditions: HOS-TE85, 504 h, time 21 day, read-out: TGI
# HOS-TE85 [24] = assay: Cell cycle arrest in human MNNG cells assessed as accumulation of cells at G0/G1 phase at 10 uM measured after 24 hrs by propidium iodide staining based flow cytometry (reference value: 51.4%); assay type: functional
# HOS-TE85 [25] = assay: Induction of apoptosis in human MNNG cells assessed as late apoptotic cells at 10 uM measured after 48 hrs by Alexa Fluor 488 Annexin V/propidium iodide staining based flow cytometry (reference value: 0.51%); assay type: functional
compound,measurement,setting,value
Cc1cc2c(cc1C)-c1oc(CN3CCOCC3)c(C)c1C(=O)C2=O,Activity,HOS-TE85 [1],18.1%
same,Activity,HOS-TE85 [2],41.1%
same,Activity,HOS-TE85 [3],3.34%
same,Activity,HOS-TE85 [4],0.08%
same,Activity,HOS-TE85 [5],Dose-dependent-effect
same,Activity,[6],Non-toxic
same,Activity,HOS-TE85 [7],12.8%
same,Activity,HOS-TE85 [8],9.2%
same,Activity,HOS-TE85 [9],15.2%
same,Activity,HOS-TE85 [10],0.42%
same,Activity,HOS-TE85 [11],10.2%
same,Activity,HOS-TE85 [12],26.1%
same,Activity,HOS-TE85 [13],10.6%
same,IC50,HOS-TE85 [14],1540 nM
same,Activity,HOS-TE85 [15],6.3%
same,Activity,HOS-TE85 [16],inactive
same,viability at 1 µM,HOS-TE85 [17],89.3%
same,Activity,[18],Non-toxic
same,Activity,[19],Non-toxic
same,Activity,HOS-TE85 [20],0.38%
same,Activity,HOS-TE85 [21],37.8%
same,Activity,[22],Toxic
same,inhibition in vivo at 15 mg/kg,HOS-TE85 [23],48.2%
same,Activity,HOS-TE85 [24],63.7%
same,Activity,HOS-TE85 [25],17.7%
